Literature values as cited in patent publication US20060275294A1, “METHOD OF PREVENTION AND TREATMENT OF AGING, AGE-RELATED DISORDERS AND/OR AGE-RELATED MANIFESTATIONS INCLUDING ATHEROSCLEROSIS, PERIPHERAL VASCULAR DISEASE, CORONARY ARTERY DISEASE, OSTEOPOROSIS, ARTHRITIS, TYPE 2 DIABETES, DEMENTIA, ALZHEIMERS DISEASE AND CANCER” (priority 2002, published 2006).
pIC50: −log10 of the molar value.

Columns and labels:
[1] = system: human monocytic THP-1 cells; conditions: 10 microM, 24 h pretreatment; cited from earlier work
[2] = system: rat primary astrocytes, microglia, and macrophages; conditions: cited from earlier work
[3] = system: human T, B and myeloma tumor cells; conditions: by promoting apoptosis; cited from earlier work
NF-kappaB = conditions: pretreatment, rat VSMCs; cited from earlier work
[4] = molecular target: isopentenyl diphosphate isomerase (Homo sapiens, UniProt Q13907); conditions: cited from earlier work
isopentenyl diphosphate isomerase, sequence (Q13907 whole entry): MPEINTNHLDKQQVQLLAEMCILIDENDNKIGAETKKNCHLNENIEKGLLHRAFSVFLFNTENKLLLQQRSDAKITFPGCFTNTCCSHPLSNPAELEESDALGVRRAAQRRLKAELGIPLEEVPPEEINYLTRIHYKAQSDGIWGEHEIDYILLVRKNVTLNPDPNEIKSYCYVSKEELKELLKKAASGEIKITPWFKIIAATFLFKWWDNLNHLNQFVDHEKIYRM

GGPP synthase = GGPP synthase (Homo sapiens, UniProt O95749); conditions: cited from earlier work
GGPP synthase, sequence (O95749 whole entry, species assumed): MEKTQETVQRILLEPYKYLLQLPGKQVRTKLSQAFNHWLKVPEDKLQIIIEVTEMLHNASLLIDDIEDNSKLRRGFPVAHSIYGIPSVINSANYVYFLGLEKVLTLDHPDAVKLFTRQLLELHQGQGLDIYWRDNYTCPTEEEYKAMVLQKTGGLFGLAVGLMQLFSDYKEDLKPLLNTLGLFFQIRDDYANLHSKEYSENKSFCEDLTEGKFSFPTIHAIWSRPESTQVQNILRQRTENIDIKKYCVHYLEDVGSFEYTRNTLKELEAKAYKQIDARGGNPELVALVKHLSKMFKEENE

[5] = molecular target: Recombinant human farnesyl diphosphate synthase (Homo sapiens, UniProt P14324); conditions: cited from earlier work
Recombinant human farnesyl diphosphate synthase, sequence (P14324 whole entry): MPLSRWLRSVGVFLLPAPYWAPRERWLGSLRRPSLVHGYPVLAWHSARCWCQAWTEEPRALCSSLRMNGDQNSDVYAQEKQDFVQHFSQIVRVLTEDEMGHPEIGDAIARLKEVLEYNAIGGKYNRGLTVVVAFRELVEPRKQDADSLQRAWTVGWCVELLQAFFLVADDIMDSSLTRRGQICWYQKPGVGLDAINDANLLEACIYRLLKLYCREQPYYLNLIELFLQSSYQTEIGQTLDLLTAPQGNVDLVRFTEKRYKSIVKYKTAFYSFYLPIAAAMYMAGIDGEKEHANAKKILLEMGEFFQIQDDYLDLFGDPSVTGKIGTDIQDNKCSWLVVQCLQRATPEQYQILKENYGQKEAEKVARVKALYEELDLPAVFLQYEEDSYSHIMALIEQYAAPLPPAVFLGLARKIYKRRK

[6] = system: interleukin (IL)-6 bioactivity; conditions: cited from earlier work

SMILES: CC[C@H](C)C(=O)O[C@H]1C[C@@H](C)C=C2C=C[C@H](C)[C@H](CC[C@@H]3C[C@@H](O)CC(=O)O3)[C@H]21 [lovastatin]
- hydrogen peroxide (H2O2) generation [1]: markedly suppressed
- LPS-mediated activation of NF kappa B ([2]; astrocytes): Inhibition
- LPS-induced expression of TNF-alpha, IL-1beta, and IL-6 ([2]; rat primary astrocytes, microglia, macrophages): inhibited
- LPS and cytokine-mediated production of NO and expression of iNOS ([2]; rat primary astrocytes): inhibit
- effect on human T, B and myeloma tumor cells [3]: cytotoxic effect

SMILES: Cc1ccc(S(=O)(=O)N[C@@H](Cc2ccccc2)C(=O)CCl)cc1 [TPCK]
- Sar1 Ang II-induced NF-kappaB activation and induction of endogenous IL-6 gene expression (NF-kappaB): completely blocked

SMILES: NCCCC(O)(P(=O)(O)O)P(=O)(O)O [alendronate]
- inhibition of isopentenyl diphosphate isomerase [4]: did not inhibit
- inhibition of GGPP synthase (GGPP synthase): did not inhibit

SMILES: O=P(O)(O)C(Cl)(Cl)P(=O)(O)O [clodronate]
- inhibition of recombinant farnesyl diphosphate synthase [5]: not at all

SMILES: O=c1c(-c2ccc(O[C@@H]3O[C@H](CO)[C@@H](O)[C@H](O)[C@H]3O)cc2)coc2cc(O)cc(O)c12 [Sophoricoside]
- pIC50 [6]: 5.21
